Source: the kinase profiling compilation of Christmann-Franck et al. (2016)

Assays:
Experiment in all cases: KINOMEscan competition binding
Conditions in all cases: compound 10.0 µM; call rule not given here
[1] = target: CAMK2G (human) (UniProt Q13555)
[2] = target: INSR (human) (UniProt P06213)
[3] = target: CDC42BPA (human) (UniProt Q5VT25)
[4] = target: PIM1 (human) (UniProt P11309)
[5] = target: CAMK2D (human) (UniProt Q13557)
[6] = target: MAPK1 (human) (UniProt P28482)
[7] = target: RPS6KA6 KD1 (human) (UniProt Q9UK32)
[8] = target: ERBB2 (human) (UniProt P04626)
[9] = target: RPS6KA3 KD1 (human) (UniProt P51812)
[10] = target: TYRO3 (human) (UniProt Q06418)
[11] = target: ADCK4 (human) (UniProt Q96D53)
[12] = target: RPS6KA4 KD1 (human) (UniProt O75676)
[13] = target: MARK1 (human) (UniProt Q9P0L2)
[14] = target: STK32B (human) (UniProt Q9NY57)
Chain of STK32B (human) (Q9NY57 whole entry, looked up): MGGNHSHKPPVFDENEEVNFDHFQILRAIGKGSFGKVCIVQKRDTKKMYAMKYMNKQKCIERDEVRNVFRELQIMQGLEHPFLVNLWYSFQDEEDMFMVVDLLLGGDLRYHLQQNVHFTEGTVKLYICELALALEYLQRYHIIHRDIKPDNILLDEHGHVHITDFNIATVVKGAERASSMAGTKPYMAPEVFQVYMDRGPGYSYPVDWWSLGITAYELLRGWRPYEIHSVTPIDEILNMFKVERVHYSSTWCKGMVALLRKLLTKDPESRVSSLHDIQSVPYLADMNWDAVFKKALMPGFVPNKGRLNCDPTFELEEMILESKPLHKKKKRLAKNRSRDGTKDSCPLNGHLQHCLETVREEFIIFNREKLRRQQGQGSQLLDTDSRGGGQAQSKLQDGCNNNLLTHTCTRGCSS

[15] = target: TGFBR1 (human) (UniProt P36897)
[16] = target: EPHB4 (human) (UniProt P54760)
Chain of EPHB4 (human) (P54760 whole entry, looked up): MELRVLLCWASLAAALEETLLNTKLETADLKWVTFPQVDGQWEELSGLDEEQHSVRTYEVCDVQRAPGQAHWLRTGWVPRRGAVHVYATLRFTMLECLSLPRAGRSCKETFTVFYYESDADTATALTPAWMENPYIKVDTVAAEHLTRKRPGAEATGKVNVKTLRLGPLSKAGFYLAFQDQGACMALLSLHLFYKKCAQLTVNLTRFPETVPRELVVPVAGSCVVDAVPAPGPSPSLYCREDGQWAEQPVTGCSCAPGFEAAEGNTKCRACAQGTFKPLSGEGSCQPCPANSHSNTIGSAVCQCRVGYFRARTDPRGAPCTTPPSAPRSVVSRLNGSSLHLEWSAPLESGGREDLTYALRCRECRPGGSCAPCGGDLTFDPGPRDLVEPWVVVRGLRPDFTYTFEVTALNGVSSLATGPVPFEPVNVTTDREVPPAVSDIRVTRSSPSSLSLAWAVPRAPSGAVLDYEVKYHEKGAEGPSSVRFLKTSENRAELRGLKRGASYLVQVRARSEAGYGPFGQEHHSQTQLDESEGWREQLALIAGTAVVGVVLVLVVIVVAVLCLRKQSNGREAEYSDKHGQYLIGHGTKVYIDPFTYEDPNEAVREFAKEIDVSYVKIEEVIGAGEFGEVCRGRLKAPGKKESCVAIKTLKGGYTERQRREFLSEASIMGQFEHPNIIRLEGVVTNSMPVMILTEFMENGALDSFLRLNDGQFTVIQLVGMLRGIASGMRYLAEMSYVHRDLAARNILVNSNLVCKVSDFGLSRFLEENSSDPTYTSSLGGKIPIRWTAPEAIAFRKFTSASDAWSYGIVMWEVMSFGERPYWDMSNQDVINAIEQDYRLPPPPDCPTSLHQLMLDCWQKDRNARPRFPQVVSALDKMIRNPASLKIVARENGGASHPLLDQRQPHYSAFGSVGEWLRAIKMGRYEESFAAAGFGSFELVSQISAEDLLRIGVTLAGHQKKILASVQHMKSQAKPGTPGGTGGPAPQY

[17] = target: CAMK1 (human) (UniProt Q14012)
[18] = target: CAMK1G (human) (UniProt Q96NX5)
[19] = target: NEK7 (human) (UniProt Q8TDX7)
Chain of NEK7 (human) (Q8TDX7 whole entry, looked up): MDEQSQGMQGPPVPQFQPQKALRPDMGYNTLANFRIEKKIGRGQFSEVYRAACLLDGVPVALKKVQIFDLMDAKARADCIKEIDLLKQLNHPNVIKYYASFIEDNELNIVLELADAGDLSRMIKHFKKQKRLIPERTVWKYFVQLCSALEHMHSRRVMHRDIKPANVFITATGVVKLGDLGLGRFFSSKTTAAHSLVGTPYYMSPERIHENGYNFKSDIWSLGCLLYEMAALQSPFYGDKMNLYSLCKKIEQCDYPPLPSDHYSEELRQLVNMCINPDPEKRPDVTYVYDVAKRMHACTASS

[20] = target: PTK2 (human) (UniProt Q05397)
[21] = target: IGF1R (human) (UniProt P08069)
Chain of IGF1R (human) (P08069 whole entry, looked up): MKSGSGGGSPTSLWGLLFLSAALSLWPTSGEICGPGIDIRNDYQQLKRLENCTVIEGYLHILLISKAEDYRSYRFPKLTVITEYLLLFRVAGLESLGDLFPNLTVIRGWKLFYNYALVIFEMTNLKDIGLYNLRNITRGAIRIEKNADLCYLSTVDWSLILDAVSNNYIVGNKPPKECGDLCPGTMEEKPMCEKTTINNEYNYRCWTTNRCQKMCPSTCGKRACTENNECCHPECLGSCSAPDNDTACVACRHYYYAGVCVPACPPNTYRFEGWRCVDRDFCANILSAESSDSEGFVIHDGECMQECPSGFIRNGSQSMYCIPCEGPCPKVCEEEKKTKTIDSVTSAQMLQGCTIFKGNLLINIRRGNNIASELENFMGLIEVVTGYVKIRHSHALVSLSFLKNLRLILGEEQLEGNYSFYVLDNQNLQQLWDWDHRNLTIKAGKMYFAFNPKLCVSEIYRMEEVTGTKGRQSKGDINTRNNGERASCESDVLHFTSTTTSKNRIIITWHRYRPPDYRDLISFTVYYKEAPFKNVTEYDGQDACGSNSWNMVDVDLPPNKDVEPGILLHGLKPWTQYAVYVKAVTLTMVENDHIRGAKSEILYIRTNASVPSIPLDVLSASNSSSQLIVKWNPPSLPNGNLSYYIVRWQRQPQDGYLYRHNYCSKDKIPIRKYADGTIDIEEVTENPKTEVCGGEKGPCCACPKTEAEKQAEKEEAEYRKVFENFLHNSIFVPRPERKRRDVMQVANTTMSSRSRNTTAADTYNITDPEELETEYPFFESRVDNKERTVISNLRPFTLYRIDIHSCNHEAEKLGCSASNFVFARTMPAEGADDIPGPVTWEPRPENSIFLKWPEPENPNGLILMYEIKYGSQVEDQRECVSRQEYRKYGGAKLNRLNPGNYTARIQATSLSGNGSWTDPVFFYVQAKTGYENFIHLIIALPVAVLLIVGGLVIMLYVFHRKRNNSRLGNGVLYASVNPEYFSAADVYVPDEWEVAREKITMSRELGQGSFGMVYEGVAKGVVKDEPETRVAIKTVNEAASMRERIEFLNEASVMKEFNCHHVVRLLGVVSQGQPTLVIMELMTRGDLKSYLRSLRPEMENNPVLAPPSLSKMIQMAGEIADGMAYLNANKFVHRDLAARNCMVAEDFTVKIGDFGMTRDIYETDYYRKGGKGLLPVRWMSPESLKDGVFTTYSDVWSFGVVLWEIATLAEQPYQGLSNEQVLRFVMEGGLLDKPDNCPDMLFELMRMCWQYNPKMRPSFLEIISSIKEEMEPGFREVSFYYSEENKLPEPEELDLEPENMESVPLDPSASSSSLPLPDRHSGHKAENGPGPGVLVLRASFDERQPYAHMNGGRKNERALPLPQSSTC

[22] = target: EPHB2 (human) (UniProt P29323)
Chain of EPHB2 (human) (P29323 whole entry, looked up): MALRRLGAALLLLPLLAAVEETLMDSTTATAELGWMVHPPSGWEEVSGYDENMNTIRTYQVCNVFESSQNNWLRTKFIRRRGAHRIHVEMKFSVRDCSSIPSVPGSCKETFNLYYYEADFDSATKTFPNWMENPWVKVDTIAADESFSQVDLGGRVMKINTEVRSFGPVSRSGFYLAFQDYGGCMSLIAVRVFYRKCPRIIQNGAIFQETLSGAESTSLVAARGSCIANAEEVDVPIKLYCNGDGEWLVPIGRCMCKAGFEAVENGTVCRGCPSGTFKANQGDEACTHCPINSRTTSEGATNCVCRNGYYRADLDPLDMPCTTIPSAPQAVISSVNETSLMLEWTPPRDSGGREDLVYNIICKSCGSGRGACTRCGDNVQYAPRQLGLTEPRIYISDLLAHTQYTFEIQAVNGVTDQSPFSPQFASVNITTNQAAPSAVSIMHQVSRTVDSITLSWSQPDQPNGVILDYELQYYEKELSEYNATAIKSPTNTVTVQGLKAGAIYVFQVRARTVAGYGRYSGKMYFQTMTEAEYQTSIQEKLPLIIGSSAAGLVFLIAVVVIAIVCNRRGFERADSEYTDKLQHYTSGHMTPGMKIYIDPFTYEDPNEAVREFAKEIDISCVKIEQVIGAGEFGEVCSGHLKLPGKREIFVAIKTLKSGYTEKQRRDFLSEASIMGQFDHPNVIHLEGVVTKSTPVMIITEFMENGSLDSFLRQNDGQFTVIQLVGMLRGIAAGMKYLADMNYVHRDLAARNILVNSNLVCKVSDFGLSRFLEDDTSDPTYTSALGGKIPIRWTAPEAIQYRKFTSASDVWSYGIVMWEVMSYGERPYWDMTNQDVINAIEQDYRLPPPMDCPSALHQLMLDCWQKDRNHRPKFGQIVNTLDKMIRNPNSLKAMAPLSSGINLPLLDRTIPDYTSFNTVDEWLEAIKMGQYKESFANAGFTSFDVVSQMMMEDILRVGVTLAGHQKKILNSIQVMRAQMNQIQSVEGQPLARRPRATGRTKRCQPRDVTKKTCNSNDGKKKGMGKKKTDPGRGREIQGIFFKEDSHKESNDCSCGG

[23] = target: MAP3K5 (human) (UniProt Q99683)
[24] = target: INSRR (human) (UniProt P14616)
[25] = target: ROS1 (human) (UniProt P08922)
[26] = target: PRKACB (human) (UniProt P22694)
[27] = target: TLK2 (human) (UniProt Q86UE8)
[28] = target: NTRK1 (human) (UniProt P04629)
[29] = target: NEK2 (human) (UniProt P51955)
[30] = target: ZAP70 (human) (UniProt P43403)
[31] = target: RPS6KA5 KD1 (human) (UniProt O75582)
[32] = target: MARK4 (human) (UniProt Q96L34)
[33] = target: EPHA6 (human) (UniProt Q9UF33)
[34] = target: PLK1 (human) (UniProt P53350)

Chain of CAMK2D (human) (Q13557 whole entry, looked up): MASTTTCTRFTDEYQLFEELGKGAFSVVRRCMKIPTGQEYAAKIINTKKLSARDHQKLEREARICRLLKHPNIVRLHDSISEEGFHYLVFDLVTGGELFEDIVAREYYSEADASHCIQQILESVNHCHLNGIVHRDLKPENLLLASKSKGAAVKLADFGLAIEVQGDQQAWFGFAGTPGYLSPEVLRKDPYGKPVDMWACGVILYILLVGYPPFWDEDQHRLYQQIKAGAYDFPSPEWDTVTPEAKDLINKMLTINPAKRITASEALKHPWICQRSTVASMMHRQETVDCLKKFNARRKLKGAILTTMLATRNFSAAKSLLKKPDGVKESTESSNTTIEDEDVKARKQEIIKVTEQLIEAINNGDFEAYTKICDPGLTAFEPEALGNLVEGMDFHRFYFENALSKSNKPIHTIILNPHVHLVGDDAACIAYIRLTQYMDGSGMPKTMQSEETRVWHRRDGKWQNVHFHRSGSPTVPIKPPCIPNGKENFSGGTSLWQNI
Chain of PIM1 (human) (P11309 whole entry, looked up): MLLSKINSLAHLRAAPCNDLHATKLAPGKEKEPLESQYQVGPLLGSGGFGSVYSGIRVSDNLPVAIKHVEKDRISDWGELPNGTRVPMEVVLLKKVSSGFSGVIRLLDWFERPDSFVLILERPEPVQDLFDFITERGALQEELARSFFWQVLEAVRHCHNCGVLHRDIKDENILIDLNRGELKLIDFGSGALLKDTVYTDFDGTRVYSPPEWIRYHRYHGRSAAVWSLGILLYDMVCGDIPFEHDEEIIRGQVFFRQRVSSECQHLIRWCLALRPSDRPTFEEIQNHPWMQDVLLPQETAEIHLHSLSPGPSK

With `Cc1ccc(O)cc1Nc1ccnc(Nc2cccc(C(N)=O)c2)n1` the “kinase still bound, per cent of control” value [1] was “no effect (inactive)”, the “kinase still bound, per cent of control” value [2] was “no effect (inactive)” and the “kinase still bound, per cent of control” value [3] was “no effect (inactive)”. The “kinase still bound, per cent of control” value [4] was “no effect (inactive)”, the “kinase still bound, per cent of control” value [5] was “no effect (inactive)” and the “kinase still bound, per cent of control” value [6] was “no effect (inactive)”. The “kinase still bound, per cent of control” value [7] was “no effect (inactive)”, the “kinase still bound, per cent of control” value [8] was “no effect (inactive)” and the “kinase still bound, per cent of control” value [9] was “no effect (inactive)”. For the same compound, the kinase still bound, per cent of control [10] was 0%, the kinase still bound, per cent of control [11] was 0% and the “kinase still bound, per cent of control” value [12] was “no effect (inactive)”. For the same compound, the “kinase still bound, per cent of control” value [13] was “no effect (inactive)”, the “kinase still bound, per cent of control” value [14] was “no effect (inactive)” and the kinase still bound, per cent of control [15] was 0%. The kinase still bound, per cent of control [16] was 0%, the “kinase still bound, per cent of control” value [17] was “no effect (inactive)” and the “kinase still bound, per cent of control” value [18] was “no effect (inactive)”. The “kinase still bound, per cent of control” value [19] was “no effect (inactive)”, the “kinase still bound, per cent of control” value [20] was “no effect (inactive)” and the “kinase still bound, per cent of control” value [21] was “no effect (inactive)”. The kinase still bound, per cent of control [22] was 0%, the “kinase still bound, per cent of control” value [23] was “no effect (inactive)” and the “kinase still bound, per cent of control” value [24] was “no effect (inactive)”. The “kinase still bound, per cent of control” value [25] was “no effect (inactive)”, the “kinase still bound, per cent of control” value [26] was “no effect (inactive)” and the “kinase still bound, per cent of control” value [27] was “no effect (inactive)”. The “kinase still bound, per cent of control” value [28] was “no effect (inactive)”, the “kinase still bound, per cent of control” value [29] was “no effect (inactive)” and the “kinase still bound, per cent of control” value [30] was “no effect (inactive)”. The “kinase still bound, per cent of control” value [31] was “no effect (inactive)”, the “kinase still bound, per cent of control” value [32] was “no effect (inactive)” and the kinase still bound, per cent of control [33] was 0%. The “kinase still bound, per cent of control” value [34] was “no effect (inactive)”.
